{"source": "paper PMC4703387", "about": "“Identification of the Calmodulin-Binding Domains of Fas Death Receptor” (PLoS ONE, 2016)", "molecular_target": "T1, Ca^2+/CaM (Homo sapiens, UniProt P0DP23)", "T1 construct": "made in house", "assay": "Gel filtration assay of Ca^2+/CaM-peptide complexes", "type": "binding", "conditions": "HiLoad Superdex 75 (10/300 GL), 50 mM Tris (pH 7.0), 100 mM NaCl, 5 mM CaCl2", "experimental": "The mobility of Ca^2+/CaM complexes with Fas-Pep1 and Fas-Pep2 was analyzed by a gel filtration assay. […] Protein fractions were analyzed by SDS-PAGE. A low molecular weight calibration kit (GE Healthcare) was used to determine the approximate molecular weight of complexes.\nFas-Pep2 has been expressed and purified as a fusion protein with SUMO (see Materials and Methods). Because of some technical difficulties during purification of a recombinant peptide, a synthetic Fas-Pep1 was used in this study. The solution properties of Fas-Pep1 and Fas-Pep2 and their complexes with Ca^2+/CaM were initially analyzed with size exclusion chromatography assay. Samples were run on a size exclusion column (Superdex 75) under identical buffer conditions. Sample concentrations were at ~50–100 μM. […] Ca^2+/CaM complexes with Fas-Pep1 and Fas-Pep2 prepared at 1:1 stoichiometry eluted at 11.3 and 11.2 mL, respectively (Fig 3A). […] The formation of complexes was confirmed by SDS-PAGE (Fig 3B). […] As we and others have shown previously, Ca^2+/CaM elutes at a smaller than expected volume due to its elongated dumbbell shape.[32, 42, 43]", "note": "Where no end group is shown, it is not given here.", "data": [{"sequence": "VQDTAEQKVQLLRNWHQLHGKKEAYDTLIKDLKKANLC [Fas-Pep2]", "values": [{"measurement": "elution volume, free", "setting": "~50–100 μM", "result": 15.2, "unit": "mL"}, {"measurement": "elution volume of complex with Ca^2+/CaM", "setting": "prepared at 1:1 stoichiometry", "result": 11.2, "unit": "mL"}]}]}
